Test results as given in article PMC3585964, “Tissue Inhibitor of Metalloproteinases-3 Peptides Inhibit Angiogenesis and Choroidal Neovascularization in Mice” (PLoS ONE, 2013).
“Also recorded” adds a separate entry of the source.

Columns and labels:
[1] = test system: PAE/KDR cells; experiment: VEGF-induced endothelial cell proliferation; type: cell-based, Porcine; settings: 1 µM peptide, 5 days; for Effect on VEGF-induced endothelial cell proliferation (in words): VEGF 5 ng/ml, ** p<0.01 vs VEGF control in figure legend
Protocol: (§1) Porcine Aortic Endothelial cells expressing VEGFR-2 (PAEKDR) were cultured in Ham’s F-12/DMEM medium supplemented with 10% fetal bovine serum (FBS) (Hyclone), 50 units/ml penicillin and 50 µg/ml streptomycin as described previously. Recombinant human VEGF was a kind gift from Genentech, CA. Antibodies: Anti-Phosphotyrosine clone 4G10 (Upstate Biotechnology/Millipore, Billerica, MA), monoclonal anti-Flk-1 (A-3) (Santa Cruz Biotechnology, Santacruz, CA), MAPK and phospho-specific MAPK antibodies (Calbiochem-Novabiochem Corporation/EMD chemicals, Gibbstown, NJ).
Cells were seeded at a density of 2000 cells/well in 24 well culture plates and cultured for 24 h in growth medium. After synchronization overnight in serum-free medium supplemented with 0.1% BSA, the cells were stimulated with or without VEGF […] in the presence or absence of the indicated concentrations of TIMP-3 peptides. After a 5-day incubation, cells were trypsinized and counted using a Coulter particle counter.
Figure 6 Effects of TIMP-3 peptides on VEGF-mediated EC proliferation. […] Serum-starved cells were incubated with or without VEGF (5 ng/ml) in the presence or absence of the 1 µM of TIMP-3 peptides for 5 days.

[2] = test system: PAE/KDR cells; experiment: Modified Boyden chamber migration assay; type: cell-based, Porcine; settings: peptide up to 20 µM; 50 ng/ml VEGF, 4 h 37°C, mini-Boyden chamber; quadruplicate samples
Protocol: as §1
A modified Boyden chamber assay was performed as described previously. Briefly, 8.0 µm pore PVPF polycarbonate membranes were pre-coated with 100 µg/ml collagen type I in 0.2 N acetic acid (Cohesion technologies, Inc. Palo Alto, California). VEGF at the indicated concentrations was placed in the lower chamber, and cells (2×10^5) in serum-free medium were placed in the upper chambers. […] The number of migrating cells per well was evaluated by light microscopy.
Figure 4 Effects of TIMP-3 peptides on VEGF-mediated EC migration. […] Cells were analyzed for migration towards 50 ng/ml VEGF in the presence or absence of increasing concentrations of loop 6 (a) and tail peptides (b) or 20 µM loop 5 or N-peptide (c), respectively, using a mini-Boyden chamber incubated at 37°C for 4 h.

[3] = biological target: VEGFR-2 (KDR/Fc chimera) binding to VEGF (Homo sapiens, UniProt P35968); experiment: Competitive ELISA, binding of sVEGFR-2/Fc to immobilized VEGF; settings: competitive ELISA, 50 ng/ml sVEGFR-2, peptides in 0.5 M Tris-HCl pH 7.5
Sequence of VEGFR-2 (KDR/Fc chimera) binding to VEGF (P35968 with tags, fused parts or gaps limits assumed): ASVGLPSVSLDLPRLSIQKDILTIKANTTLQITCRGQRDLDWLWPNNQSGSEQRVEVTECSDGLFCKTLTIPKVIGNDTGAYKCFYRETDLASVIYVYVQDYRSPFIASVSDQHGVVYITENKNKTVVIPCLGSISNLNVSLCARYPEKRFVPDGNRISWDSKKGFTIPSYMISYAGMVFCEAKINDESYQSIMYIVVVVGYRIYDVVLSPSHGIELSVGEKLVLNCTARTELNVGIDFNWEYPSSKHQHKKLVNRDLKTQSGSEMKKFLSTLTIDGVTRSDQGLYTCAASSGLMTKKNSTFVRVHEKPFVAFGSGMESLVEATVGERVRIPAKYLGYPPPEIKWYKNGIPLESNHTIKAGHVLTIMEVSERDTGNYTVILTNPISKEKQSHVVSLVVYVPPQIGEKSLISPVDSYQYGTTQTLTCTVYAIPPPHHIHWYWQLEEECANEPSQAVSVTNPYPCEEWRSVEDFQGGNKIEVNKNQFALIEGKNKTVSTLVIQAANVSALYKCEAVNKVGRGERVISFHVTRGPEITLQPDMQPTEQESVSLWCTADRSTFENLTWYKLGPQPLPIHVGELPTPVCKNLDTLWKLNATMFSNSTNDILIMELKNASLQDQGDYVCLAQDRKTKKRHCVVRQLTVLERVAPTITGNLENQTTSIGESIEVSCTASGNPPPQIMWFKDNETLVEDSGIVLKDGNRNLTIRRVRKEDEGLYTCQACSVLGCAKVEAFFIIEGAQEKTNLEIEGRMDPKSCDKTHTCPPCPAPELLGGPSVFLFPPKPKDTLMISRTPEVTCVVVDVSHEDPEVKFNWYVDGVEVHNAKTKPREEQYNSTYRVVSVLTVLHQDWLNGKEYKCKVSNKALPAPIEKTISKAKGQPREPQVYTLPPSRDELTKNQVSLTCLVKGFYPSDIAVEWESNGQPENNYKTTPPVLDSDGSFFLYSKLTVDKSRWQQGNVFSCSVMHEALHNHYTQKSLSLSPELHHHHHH
Protocol: 96 well EIA/RIA strip plates (COSTAR) were coated with 80 ng/ml recombinant VEGF overnight at 4°C, washed and blocked with blocking buffer (1% BSA and 5% sucrose) overnight at 4°C. Series of dilutions were prepared for recombinant proteins representing WT-TIMP-3, NT2:CT3 and N-T3 in PBS or synthetic peptides corresponding to T3-loop 5, T3-loop 6, T3-N or T3-tail peptides in 0.5 M Tris-HCl (pH 7.5). The diluents were mixed with 50 ng/ml recombinant human VEGFR-2 (KDR/Fc chimera, recombinant human VEGFR-1 (Flt-1)/Fc chimera (R&D Systems, Minneapolis, MN) or control human lgG (Sigma Aldrich, St Louis, MO). The mixtures were then added to the VEGF-coated well in a final volume of 100 µL in PBS and incubated for 2 hours at room temperature. Bound VEGFR-2 was detected by HRP-conjugated anti-human lgG(Fc specific) (1∶1000).

[4] = test system: VEGFR-2 (KDR) in PAE/KDR cells; experiment: VEGF-induced VEGFR-2 phosphorylation (immunoprecipitation/western blot); type: cell-based, Porcine; settings: 20 µM peptide, 50 ng/ml VEGF
Protocol: as §1
(§2) Immunoprecipitates of cell lysates with the indicated antibodies were subjected to SDS-PAGE and western blot analysis. Proteins were detected with either a HRP-conjugated anti-rabbit or anti-mouse IgG antibody (Amersham Pharmacia Biotech., Piscataway, NJ) followed by ECL. […]
(§3) Figure 3 Effects of TIMP-3 peptides on VEGF signaling in endothelial cells. […] Cell lysates were separated by SDS-PAGE (10%) and analyzed by immunoprecipitation with an anti-KDR anti-body followed by immunoblotting with an anti-phosphotyrosine antibody, 4G10 (top panel). KDR protein was analyzed by immunoprecipitation and immunoblotting of cell lysates using anti-KDR antibody (bottom panel). (b) Densitometric quantitation of 210-kDa bands for phospho- or total mature form of KDR. […]

[5] = test system: PAE/KDR cells; experiment: Actin reorganization / membrane ruffle formation (FITC-phalloidin); type: cell-based, Porcine; settings: peptide at doses as high as 20 µM; 50 ng/ml VEGF 30 min 37°C
Protocol: as §1
Subconfluent cells cultured on Falcon culture slides (BD Biosciences) were serum-starved overnight and stimulated for 30 min at 37°C with 50 ng/ml VEGF or control buffer. The cells were fixed with 3.7% paraformaldehyde in PBS for 30 min at 4°C and permeabilized with 0.2% Triton X-100 for 20 min at room temperature. Following rinsing with PBS, the cells were incubated with fluorescein isothiocyanate (FITC)-labeled phalloidin in PBS (0.66 µg/ml, Sigma Aldrich, St. Louis, MO) for 20 min at room temperature, washed with PBS and analyzed by fluorescence microscopy.
Figure 5 Effects of TIMP-3 peptides on VEGF-mediated actin reorganization. TIMP-3 loop 6 and tail but not loop 5 and N-peptide inhibit VEGF-induced actin reorganization in PAE/KDR cells. […]

[6] = test system: ERK1 (p44) and ERK2 (p42) in PAE/KDR cells; experiment: VEGF-stimulated ERK1/2 (MAP kinase) phosphorylation (western blot); type: cell-based, Porcine; settings: 20 µM peptide
Protocol: as §1, §2, §3

KIKSCYYLPCFVTS [T3-loop 5]
Possible induction of endothelial cell proliferation [1]: may in fact induce proliferation of endothelial cells
Effect on VEGF-induced endothelial cell proliferation (in words) [1]: neither T3-loop 5 nor T3-N peptide showed inhibitory properties
Inhibition of VEGF-induced migration [2]: failed to inhibit VEGF-induced migration
Effect of synthetic peptides on VEGF binding to sVEGFR-2 (in words) [3]: did not show any inhibitory activity
Effect of synthetic peptides on VEGF binding to sVEGFR-2 (in words) ([3]; listed as Loop5): have no effect on sVEGFR-2-VEGF complexes
Inhibition of VEGF-induced VEGFR-2 activation (phosphorylation) [4]: failed to inhibit VEGF-induced receptor activation
Inhibition of VEGF-stimulated membrane ruffle formation [5]: neither T3-loop 5 nor T3-N peptide at doses as high as 20 µM inhibited the formation of membrane ruffles
Inhibition of VEGF-stimulated MAP kinase activation [6]: neither loop 5 nor N-peptide, even at higher concentrations (20 µM) inhibited VEGF-stimulated MAP kinase activation

RGFTKMPHVQYIHTEASESL [T3-N peptide]
Possible induction of endothelial cell proliferation [1]: may in fact induce proliferation of endothelial cells
Effect on VEGF-induced endothelial cell proliferation (in words) [1]: neither T3-loop 5 nor T3-N peptide showed inhibitory properties
Inhibition of VEGF-induced migration [2]: failed to inhibit VEGF-induced migration
Effect of synthetic peptides on VEGF binding to sVEGFR-2 (in words) [3]: did not show any inhibitory activity; also recorded: have no effect on sVEGFR-2-VEGF complexes
Inhibition of VEGF-induced VEGFR-2 activation (phosphorylation) [4]: failed to inhibit VEGF-induced receptor activation
Inhibition of VEGF-stimulated membrane ruffle formation [5]: neither T3-loop 5 nor T3-N peptide at doses as high as 20 µM inhibited the formation of membrane ruffles
Inhibition of VEGF-stimulated MAP kinase activation [6]: neither loop 5 nor N-peptide, even at higher concentrations (20 µM) inhibited VEGF-stimulated MAP kinase activation
